The results in this text go back to article PMC7827406, “Structure–Activity Relationship (SAR) Study of Spautin-1 to Entail the Discovery of Novel NEK4 Inhibitors” (International Journal of Molecular Sciences, 2021).

What all share (experiment): biochemical
Set-up in all cases: Eurofins KinaseProfiler full panel at Km ATP, residual kinase activity (%) relative to DMSO

Assay [1] addresses T1, PRAK(h) (Homo sapiens, UniProt Q8IW41).
T1 construct: gene MAPKAPK5
T1 sequence (Q8IW41 1-473): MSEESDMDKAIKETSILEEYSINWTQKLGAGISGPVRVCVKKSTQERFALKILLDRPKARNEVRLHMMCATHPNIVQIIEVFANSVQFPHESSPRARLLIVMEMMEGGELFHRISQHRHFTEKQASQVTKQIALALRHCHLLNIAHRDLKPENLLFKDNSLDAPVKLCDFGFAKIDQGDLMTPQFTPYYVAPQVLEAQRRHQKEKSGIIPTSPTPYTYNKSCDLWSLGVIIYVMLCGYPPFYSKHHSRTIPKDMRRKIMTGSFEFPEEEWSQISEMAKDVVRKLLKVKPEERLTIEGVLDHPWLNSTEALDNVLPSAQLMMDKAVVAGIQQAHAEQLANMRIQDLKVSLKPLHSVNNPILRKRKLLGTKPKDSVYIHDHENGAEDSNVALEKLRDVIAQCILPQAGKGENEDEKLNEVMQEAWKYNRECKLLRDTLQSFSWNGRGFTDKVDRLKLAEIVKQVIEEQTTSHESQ
A digest of the protocol: (§1)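 Two 10 µM single-concentration screens were run: a competition-binding screen, in which DNA-tagged kinase bound to immobilized ligands was quantified by qPCR, and a radiometric activity panel at Km ATP. Each is expressed as residual kinase activity (%).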

For assay [2], the target named is SIK3(h) (Homo sapiens, UniProt Q9Y2K2). A digest of the protocol:
as §1

For assay [3], the target named is T2, VRK1(h) (Homo sapiens, UniProt Q99986).
T2 sequence (Q99986 1-396): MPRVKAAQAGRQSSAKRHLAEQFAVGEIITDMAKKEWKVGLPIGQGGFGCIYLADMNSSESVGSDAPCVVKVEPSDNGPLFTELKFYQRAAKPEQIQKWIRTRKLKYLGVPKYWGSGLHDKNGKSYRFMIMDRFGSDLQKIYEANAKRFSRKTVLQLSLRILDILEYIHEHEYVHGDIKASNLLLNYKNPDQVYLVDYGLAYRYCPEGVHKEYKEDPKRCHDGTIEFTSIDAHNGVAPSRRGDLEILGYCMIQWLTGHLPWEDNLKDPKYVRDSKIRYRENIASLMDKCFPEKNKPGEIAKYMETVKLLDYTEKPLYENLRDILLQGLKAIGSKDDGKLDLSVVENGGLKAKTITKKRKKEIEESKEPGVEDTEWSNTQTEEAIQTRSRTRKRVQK
An outline of the steps: as §1

In assay [4] the target is T3, MST2(h) (Homo sapiens, UniProt Q13188).
T3 construct: gene STK3
T3 sequence (Q13188 1-491): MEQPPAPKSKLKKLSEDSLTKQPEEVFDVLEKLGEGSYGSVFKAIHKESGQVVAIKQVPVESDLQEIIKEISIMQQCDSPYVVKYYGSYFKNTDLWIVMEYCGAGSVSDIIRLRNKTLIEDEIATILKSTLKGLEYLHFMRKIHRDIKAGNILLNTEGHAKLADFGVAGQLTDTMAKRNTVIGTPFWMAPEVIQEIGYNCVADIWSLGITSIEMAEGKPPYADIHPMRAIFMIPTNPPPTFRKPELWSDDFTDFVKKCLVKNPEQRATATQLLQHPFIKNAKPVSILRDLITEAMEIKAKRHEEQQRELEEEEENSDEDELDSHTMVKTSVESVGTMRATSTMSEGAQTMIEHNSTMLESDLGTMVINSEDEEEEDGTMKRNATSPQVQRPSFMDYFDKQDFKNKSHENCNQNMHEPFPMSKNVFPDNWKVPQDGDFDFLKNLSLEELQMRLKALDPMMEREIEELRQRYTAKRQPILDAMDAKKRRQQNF
An outline of the steps:
as §1

Assay [5] concerns the target T4, MLK4(h) (Homo sapiens, UniProt Q5TCX8).
T4 construct: gene MAP3K21
An outline of the steps:
as §1

The target in assay [6] is T5, PKCε(h) (Homo sapiens, UniProt Q02156).
T5 construct: gene PRKCE
T5 sequence (Q02156 1-737): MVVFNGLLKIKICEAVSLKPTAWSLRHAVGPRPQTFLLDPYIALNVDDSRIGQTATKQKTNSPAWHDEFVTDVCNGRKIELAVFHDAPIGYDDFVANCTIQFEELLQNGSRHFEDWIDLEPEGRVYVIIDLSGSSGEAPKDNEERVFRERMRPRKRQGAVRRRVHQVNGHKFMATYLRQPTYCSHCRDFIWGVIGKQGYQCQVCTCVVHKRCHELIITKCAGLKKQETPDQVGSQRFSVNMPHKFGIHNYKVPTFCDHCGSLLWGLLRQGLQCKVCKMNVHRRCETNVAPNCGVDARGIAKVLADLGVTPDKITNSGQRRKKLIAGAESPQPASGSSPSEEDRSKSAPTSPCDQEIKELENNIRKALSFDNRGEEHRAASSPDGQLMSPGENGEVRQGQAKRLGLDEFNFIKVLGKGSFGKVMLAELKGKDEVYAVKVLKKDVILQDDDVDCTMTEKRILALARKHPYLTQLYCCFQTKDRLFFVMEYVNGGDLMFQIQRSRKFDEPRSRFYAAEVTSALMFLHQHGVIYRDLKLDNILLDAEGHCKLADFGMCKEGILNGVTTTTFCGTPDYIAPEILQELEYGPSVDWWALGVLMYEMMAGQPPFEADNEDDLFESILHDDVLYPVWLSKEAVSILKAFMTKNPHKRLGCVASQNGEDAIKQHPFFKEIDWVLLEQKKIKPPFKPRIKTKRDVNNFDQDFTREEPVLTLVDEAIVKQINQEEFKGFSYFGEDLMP
A digest of the protocol: as §1

[7] abbreviates: read-out: Residual activity (%) Spautin-1 5aa.
The mark [8] stands for this setting: read-out: Residual activity (%) 5as.
[9] abbreviates: read-out: Residual activity (%) 5at.
The mark [10] stands for this setting: read-out: Residual activity (%) 5ay.

Where two headings read alike, the source gives them in different places.

Chain of SIK3(h) (Q9Y2K2 whole entry): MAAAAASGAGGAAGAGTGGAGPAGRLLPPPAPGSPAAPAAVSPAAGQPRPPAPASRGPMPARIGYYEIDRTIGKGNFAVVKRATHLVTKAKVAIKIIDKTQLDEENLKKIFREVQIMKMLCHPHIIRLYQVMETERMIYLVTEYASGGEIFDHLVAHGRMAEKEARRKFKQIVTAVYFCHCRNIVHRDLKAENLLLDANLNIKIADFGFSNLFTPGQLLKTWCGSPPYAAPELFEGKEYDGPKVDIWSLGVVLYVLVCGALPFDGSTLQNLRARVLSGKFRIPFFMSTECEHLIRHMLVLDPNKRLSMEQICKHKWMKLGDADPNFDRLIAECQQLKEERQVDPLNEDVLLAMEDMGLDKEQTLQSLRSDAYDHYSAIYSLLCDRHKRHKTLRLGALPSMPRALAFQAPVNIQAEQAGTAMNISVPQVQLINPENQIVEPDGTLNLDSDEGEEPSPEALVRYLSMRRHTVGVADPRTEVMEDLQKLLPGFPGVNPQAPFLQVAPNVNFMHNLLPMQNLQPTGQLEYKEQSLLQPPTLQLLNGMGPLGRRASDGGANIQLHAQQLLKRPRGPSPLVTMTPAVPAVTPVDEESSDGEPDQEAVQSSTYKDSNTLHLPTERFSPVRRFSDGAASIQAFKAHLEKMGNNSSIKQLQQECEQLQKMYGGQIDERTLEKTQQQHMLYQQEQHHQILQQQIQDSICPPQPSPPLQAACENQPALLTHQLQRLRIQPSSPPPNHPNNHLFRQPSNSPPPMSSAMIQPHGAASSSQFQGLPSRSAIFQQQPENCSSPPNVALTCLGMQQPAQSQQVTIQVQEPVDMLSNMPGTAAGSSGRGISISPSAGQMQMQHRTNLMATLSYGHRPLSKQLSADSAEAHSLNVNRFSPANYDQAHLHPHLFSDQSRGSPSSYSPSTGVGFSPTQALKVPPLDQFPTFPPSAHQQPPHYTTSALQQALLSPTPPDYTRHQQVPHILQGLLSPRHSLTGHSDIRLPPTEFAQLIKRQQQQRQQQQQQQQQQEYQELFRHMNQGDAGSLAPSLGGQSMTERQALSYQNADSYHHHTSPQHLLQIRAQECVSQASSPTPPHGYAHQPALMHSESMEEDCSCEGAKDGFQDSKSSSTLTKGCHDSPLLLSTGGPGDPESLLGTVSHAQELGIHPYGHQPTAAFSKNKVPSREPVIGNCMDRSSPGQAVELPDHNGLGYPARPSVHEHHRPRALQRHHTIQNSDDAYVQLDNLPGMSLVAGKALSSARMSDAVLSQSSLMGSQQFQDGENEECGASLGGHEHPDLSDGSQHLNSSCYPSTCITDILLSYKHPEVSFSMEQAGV
T4 sequence (Q5TCX8 whole entry): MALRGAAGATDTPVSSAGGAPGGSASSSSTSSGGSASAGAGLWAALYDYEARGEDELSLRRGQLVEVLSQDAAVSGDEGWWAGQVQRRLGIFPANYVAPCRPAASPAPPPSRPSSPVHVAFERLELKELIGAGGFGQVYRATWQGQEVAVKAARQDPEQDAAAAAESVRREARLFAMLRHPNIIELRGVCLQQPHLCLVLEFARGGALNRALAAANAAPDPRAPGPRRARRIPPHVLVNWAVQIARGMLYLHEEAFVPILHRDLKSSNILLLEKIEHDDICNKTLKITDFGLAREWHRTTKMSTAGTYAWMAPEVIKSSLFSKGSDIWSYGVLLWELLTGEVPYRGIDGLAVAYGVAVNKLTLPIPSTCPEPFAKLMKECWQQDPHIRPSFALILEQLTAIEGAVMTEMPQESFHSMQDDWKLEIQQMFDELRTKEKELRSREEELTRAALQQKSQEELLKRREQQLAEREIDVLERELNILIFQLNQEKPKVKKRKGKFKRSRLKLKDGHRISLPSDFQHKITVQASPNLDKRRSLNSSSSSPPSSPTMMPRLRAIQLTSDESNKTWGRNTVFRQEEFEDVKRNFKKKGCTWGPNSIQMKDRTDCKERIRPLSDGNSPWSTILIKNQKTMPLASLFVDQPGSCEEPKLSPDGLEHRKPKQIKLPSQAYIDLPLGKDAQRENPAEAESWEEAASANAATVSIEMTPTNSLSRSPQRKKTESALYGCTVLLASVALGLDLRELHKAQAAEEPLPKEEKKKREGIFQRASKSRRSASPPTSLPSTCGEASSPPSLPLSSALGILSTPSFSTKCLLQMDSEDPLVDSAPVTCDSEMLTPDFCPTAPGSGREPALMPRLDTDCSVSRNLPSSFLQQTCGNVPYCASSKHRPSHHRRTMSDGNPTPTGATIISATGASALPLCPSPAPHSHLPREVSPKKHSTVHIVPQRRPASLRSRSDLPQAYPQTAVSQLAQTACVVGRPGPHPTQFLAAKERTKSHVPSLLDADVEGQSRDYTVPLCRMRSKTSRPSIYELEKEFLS

Turning to `Fc1ccc(CNc2ncnc3ccc(F)cc23)cc1` [5aa, 6-Fluoro-N-(4-fluorobenzyl)-4-Quinazolinamine], the remaining activity at 10 µM is 107% in assay [1] (setting [7]); 95% in assay [2] (setting [7]); 94% in assay [3] (setting [7]); 98% in assay [4] (setting [7]); 105% in assay [5] (setting [7]); 95% in assay [6] (setting [7]).
Consider `Fc1ccc(CCNc2ncnc3ccc(F)cc23)cc1` [5as, 6-Fluoro-N-[2-(4-Fluorophenyl)Ethyl]-4-Quinazolinamine], for which the remaining activity at 10 µM in assay [1] (setting [8]) worked out at 108%; in assay [2] (setting [8]), 79%; in assay [3] (setting [8]) it was 82%; in assay [4] (setting [8]) it was 112%; in assay [5] (setting [8]), 93%; in assay [6] (setting [8]), 93%.
For `Fc1ccc2ncnc(NCCc3ccc(Cl)cc3)c2c1` [5at, N-[2-(4-Chlorophenyl)Ethyl]-6-Fluoro-4-Quinazolinamine], the remaining activity at 10 µM is 91% in assay [1] (setting [9]); 71% in assay [2] (setting [9]); 79% in assay [3] (setting [9]); 81% in assay [4] (setting [9]); 94% in assay [5] (setting [9]); 86% in assay [6] (setting [9]).
For the compound `COc1ccc2ncnc(Nc3cccc(F)c3)c2c1` [5ay, N-(3-Fluorophenyl)-6-Methoxy-4-Quinazolinamine], the remaining activity at 10 µM in assay [1] (setting [10]) is 102%; in assay [2] (setting [10]), 81%; in assay [3] (setting [10]), 89%; in assay [4] (setting [10]) it was 102%; in assay [5] (setting [10]), 91%; in assay [6] (setting [10]) it was 93%.
